Experimental data taken from the NIST ThermoML archive (doi:10.1016/j.fluid.2014.09.007).
± gives the expanded uncertainty stated by the source.

What was measured:
[1] = Crystal
[2] = Solid-liquid equilibrium temperature; settings: Crystal, visual observation
[3] = Molar enthalpy of transition or fusion; settings: Crystal; DSC

SMILES	Normal melting temperature ([1]; DTA)	Normal melting temperature ([1]; visual observation)	Solid-liquid equilibrium temperature ([2]; 100 kPa)	Solid-liquid equilibrium temperature ([2]; 20000 kPa)	Solid-liquid equilibrium temperature ([2]; 40000 kPa)	Solid-liquid equilibrium temperature ([2]; 60000 kPa)	Solid-liquid equilibrium temperature ([2]; 80000 kPa)	Molar enthalpy of transition or fusion [3]
CCCCCCCCCCCC(=O)OCC [ethyl dodecanoate]	-0.9 ± 0.5 °C	-0.8 ± 0.5 °C	272.3 ± 0.4 K	276.4 ± 0.5 K	280.3 ± 0.5 K	284 ± 0.5 K	287.4 ± 0.5 K	9.18 ± 0.311 kcal/mol
CCCCCCCCCCCCCCCC(=O)OCC [ethyl hexadecanoate]	24.2 ± 0.5 °C	24.5 ± 0.5 °C	297.6 ± 0.4 K	302 ± 0.5 K	306.4 ± 0.5 K	310.3 ± 0.5 K	314.3 ± 0.5 K	13.3 ± 0.359 kcal/mol
CCCCCCCCCCCCCC(=O)OCC [ethyl tetradecanoate]	13.2 ± 0.5 °C	12.7 ± 0.5 °C	285.8 ± 0.4 K	289.9 ± 0.5 K	294.1 ± 0.5 K	298 ± 0.5 K	301.9 ± 0.5 K	11.3 ± 0.335 kcal/mol
